PubChem BioAssay AID2060627 (Molecular Pharmacology Branch, DTP, NCI, 2025)
“And” between values parts separate entries of the source, which are not always exact repeats. Equal values may be shown once.

Tested on: 156681-154-R-J1-PDC complex spheroid viability
Assay: Anticancer human tumor 156681-154-R-J1-PDC patient-derived melanoma cell line growth inhibition [CLK]
Conditions: for viability, T/C: stronger effect = lower value
Procedure, shortened: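 Patient-derived tumor cells grown as complex spheroids with HUVEC endothelial cells and mesenchymal stem cells, treated with drug combinations. Concentrations descend in half-log steps from near clinical Cmax, or from 10 microM if Cmax unknown.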

[1] = curve of first compound, second compound 0.0316 µM
[2] = curve of first compound, second compound 0.1 µM
[3] = curve of first compound, second compound 0.316 µM
[4] = curve of first compound, second compound 1 µM
[5] = curve of first compound, second compound 3.16 µM
[6] = curve of first compound, second compound 10 µM
[7] = second compound 0.0316 µM, first compound 0.0316 µM
[8] = second compound 0.0316 µM, first compound 0.1 µM
[9] = second compound 0.0316 µM, first compound 0.316 µM
[10] = second compound 0.0316 µM, first compound 1 µM
[11] = second compound 0.0316 µM, first compound 3.16 µM
[12] = second compound 0.0316 µM, first compound 10 µM
[13] = second compound 0.1 µM, first compound 0.0316 µM
[14] = second compound 0.1 µM, first compound 0.1 µM
[15] = second compound 0.1 µM, first compound 0.316 µM
[16] = second compound 0.1 µM, first compound 1 µM
[17] = second compound 0.1 µM, first compound 3.16 µM
[18] = second compound 0.1 µM, first compound 10 µM
[19] = second compound 0.316 µM, first compound 0.0316 µM
[20] = second compound 0.316 µM, first compound 0.1 µM
[21] = second compound 0.316 µM, first compound 0.316 µM
[22] = second compound 0.316 µM, first compound 1 µM
[23] = second compound 0.316 µM, first compound 3.16 µM
[24] = second compound 0.316 µM, first compound 10 µM
[25] = second compound 1 µM, first compound 0.0316 µM
[26] = second compound 1 µM, first compound 0.1 µM
[27] = second compound 1 µM, first compound 0.316 µM
[28] = second compound 1 µM, first compound 1 µM
[29] = second compound 1 µM, first compound 3.16 µM
[30] = second compound 1 µM, first compound 10 µM
[31] = second compound 3.16 µM, first compound 0.0316 µM
[32] = second compound 3.16 µM, first compound 0.1 µM
[33] = second compound 3.16 µM, first compound 0.316 µM
[34] = second compound 3.16 µM, first compound 1 µM
[35] = second compound 3.16 µM, first compound 3.16 µM
[36] = second compound 3.16 µM, first compound 10 µM
[37] = second compound 10 µM, first compound 0.0316 µM
[38] = second compound 10 µM, first compound 0.1 µM
[39] = second compound 10 µM, first compound 0.316 µM
[40] = second compound 10 µM, first compound 1 µM
[41] = second compound 10 µM, first compound 3.16 µM
[42] = second compound 10 µM, first compound 10 µM
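Also: spheroids exposed to the agents for seven days.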
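For viability, T/C in this document: 100% = DMSO vehicle control viability.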

CC1COCCN1c1cc(C2(S(C)(=N)=O)CC2)nc(-c2ccnc3[nH]ccc23)n1 (stereo not drawn) + CNC(=O)c1ccc(Nc2nc(OC3CCCC3)c3c(-c4ccc5nc(C)oc5c4)c[nH]c3n2)c(OC)c1
IC50 [1]: 1420 nM | IC50 [2]: 846 nM | IC50 [3]: 757 nM | IC50 [4]: 600 nM | IC50 [5]: 166 nM | IC50 [6]: 43 nM | viability, T/C [7]: 102% | viability, T/C [8]: 110% | viability, T/C [9]: 86.5% | viability, T/C [10]: 61% | viability, T/C [11]: 27.7% | viability, T/C [12]: 14.3% | viability, T/C [13]: 60% | viability, T/C [14]: 76.3% | viability, T/C [15]: 71.9% | viability, T/C [16]: 45.1% | viability, T/C [17]: 23.3% | viability, T/C [18]: 13.1% | viability, T/C [19]: 68.1% | viability, T/C [20]: 70.3% | viability, T/C [21]: 66.6% | viability, T/C [22]: 44.2% | viability, T/C [23]: 24.8% | viability, T/C [24]: 17.8% | viability, T/C [25]: 63.4% | viability, T/C [26]: 55.5% | viability, T/C [27]: 54.7% | viability, T/C [28]: 45.4% | viability, T/C [29]: 16% | viability, T/C [30]: 7.92% | viability, T/C [31]: 61.8% | viability, T/C [32]: 49.1% | viability, T/C [33]: 42.9% | viability, T/C [34]: 43.4% | viability, T/C [35]: 14.4% | viability, T/C [36]: 8.47% | viability, T/C [37]: 51.5% | viability, T/C [38]: 47.3% | viability, T/C [39]: 30.1% | viability, T/C [40]: 30.7% | viability, T/C [41]: 15.5% | viability, T/C [42]: 7.43%

CCN1CCN(Cc2ccc(Nc3ncc(F)c(-c4cc(F)c5nc(C)n(C(C)C)c5c4)n3)nc2)CC1
viability, T/C (compound 0.00316 µM): 82.6% and 81.5% | viability, T/C (compound 0.01 µM): 82.6% and 92.4% | viability, T/C (compound 0.0316 µM): 83.9% and 84.2% | viability, T/C (compound 0.1 µM): 69.7% and 84.1% | viability, T/C (compound 0.316 µM): 66.8% and 75.8% | viability, T/C (compound 1 µM): 50.5% and 56.2% | IC50 (curve of compound): > 1000 nM

C#Cc1c(F)ccc2cc(O)cc(-c3ncc4c(N5CC6CCC(C5)N6)nc(OCC56CCCN5CC(F)C6)nc4c3F)c12 (stereo not drawn) + CNC(=O)c1ccc(Nc2nc(OC3CCCC3)c3c(-c4ccc5nc(C)oc5c4)c[nH]c3n2)c(OC)c1
IC50 [1]: > 10000 nM | IC50 [2]: > 10000 nM | IC50 [3]: > 10000 nM | IC50 [4]: 114 nM | IC50 [5]: < 31.6 nM | IC50 [6]: < 31.6 nM | viability, T/C [7]: 86% | viability, T/C [8]: 94.4% | viability, T/C [9]: 104% | viability, T/C [10]: 109% | viability, T/C [11]: 113% | viability, T/C [12]: 101% | viability, T/C [13]: 53.5% | viability, T/C [14]: 73.8% | viability, T/C [15]: 60.3% | viability, T/C [16]: 70% | viability, T/C [17]: 73.6% | viability, T/C [18]: 62.9% | viability, T/C [19]: 62.4% | viability, T/C [20]: 48.6% | viability, T/C [21]: 66.4% | viability, T/C [22]: 65.9% | viability, T/C [23]: 67% | viability, T/C [24]: 65.2% | viability, T/C [25]: 43.2% | viability, T/C [26]: 53.5% | viability, T/C [27]: 47.9% | viability, T/C [28]: 56% | viability, T/C [29]: 63.6% | viability, T/C [30]: 31.6% | viability, T/C [31]: 54.5% | viability, T/C [32]: 49.8% | viability, T/C [33]: 39.2% | viability, T/C [34]: 49.8% | viability, T/C [35]: 50.4% | viability, T/C [36]: 20.2% | viability, T/C [37]: 45.7% | viability, T/C [38]: 38.5% | viability, T/C [39]: 36.7% | viability, T/C [40]: 50% | viability, T/C [41]: 43% | viability, T/C [42]: 13.2%

CC1COCCN1c1cc(C2(S(C)(=N)=O)CC2)nc(-c2ccnc3[nH]ccc23)n1 (stereo not drawn)
viability, T/C (compound 0.0316 µM): 78.6% and 84.9% | viability, T/C (compound 0.1 µM): 88.3% and 97.8% | viability, T/C (compound 0.316 µM): 85.9% and 86.3% | viability, T/C (compound 1 µM): 61.9% and 48% | viability, T/C (compound 3.16 µM): 24% and 20.1% | viability, T/C (compound 10 µM): 15.4% and 13.1% | IC50 (curve of compound): 1440 nM and 956 nM
